# From the supplement of paper PMC10307832
# Legend:
# Assay in all cases: relative viability (nuclei count vs DMSO), 5 days (fraction); higher = more cells survive
# [1] = compound: C1CC(C2=C(C1)C3=C(N2)C=CC(=C3)Cl)C(=O)N [Selisistat] + Nc1ncn([C@H]2C[C@H](O)[C@@H](CO)O2)c(=O)n1 [Decitabine] (partner 2 µM)
# Outline: (§1)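 Lung cancer cell lines, seeded in 1536-well plates, were treated the following day by pin tool with a single drug or with five library-drug doses (not always all listed) in √10 steps on top of a fixed anchor-drug dose. Cells were fixed and nuclei stained in one step after 5 days, and nuclei were counted. Relative viability is the nuclei count for treated wells divided by that for vehicle wells, reported as medians of duplicate plates.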
# [2] = compound: C1CC(C2=C(C1)C3=C(N2)C=CC(=C3)Cl)C(=O)N [Selisistat] + O=C(CCCCCCC(=O)Nc1ccccc1)NO [Vorinostat] (partner 1 µM)
# Outline: as §1
# [3] = compound: c1ccc2c(CCNc3ccc(Nc4ccncc4)cc3)c[nH]c2c1 [Serdemetan] + CS(=O)(=O)CCNCc1ccc(-c2ccc3ncnc(Nc4ccc(OCc5cccc(F)c5)c(Cl)c4)c3c2)o1 [Lapatinib] (partner 2 µM)
# Outline: as §1
# [4] = compound: c1ccc2c(CCNc3ccc(Nc4ccncc4)cc3)c[nH]c2c1 [Serdemetan] + Cc1nc(NC(=O)N2CCC[C@H]2C(N)=O)sc1-c1ccnc(C(C)(C)C(F)(F)F)c1 [Alpelisib] (partner 2 µM)
# Outline: as §1
Cell Line,relative viability ([1]; first compound 0.4 µM),relative viability ([1]; first compound 1.265 µM),relative viability ([1]; first compound 4 µM),relative viability ([1]; first compound 12.65 µM),relative viability ([1]; first compound 40 µM),relative viability ([2]; first compound 0.4 µM),relative viability ([2]; first compound 1.265 µM),relative viability ([2]; first compound 4 µM),relative viability ([2]; first compound 12.65 µM),relative viability ([2]; first compound 40 µM),relative viability ([3]; first compound 0.04 µM),relative viability ([3]; first compound 0.1265 µM),relative viability ([3]; first compound 0.4 µM),relative viability ([3]; first compound 1.265 µM),relative viability ([3]; first compound 4 µM),relative viability ([4]; first compound 0.04 µM),relative viability ([4]; first compound 0.1265 µM),relative viability ([4]; first compound 0.4 µM),relative viability ([4]; first compound 1.265 µM),relative viability ([4]; first compound 4 µM)
NCI-H358,0.248,0.226,0.195,0.212,0.218,0.766,0.636,0.686,0.778,0.8,0.42,0.509,0.439,0.558,0.405,0.86,0.946,0.906,0.679,0.734
NCI-H460,0.474,0.499,0.571,0.467,0.513,0.691,0.772,0.808,0.723,0.807,0.878,0.936,0.866,0.659,0.132,0.506,0.415,0.333,0.171,0.0988
NCI-H520,0.586,0.512,0.536,0.592,0.493,0.722,0.705,0.814,0.592,0.794,0.791,0.91,0.813,0.813,0.614,0.729,0.807,1.09,0.726,0.786
NCI-H596,1.07,1.02,0.862,1.09,1.07,0.698,0.609,0.521,0.75,0.773,1.07,0.972,1.09,0.871,0.666,0.477,0.498,0.481,0.369,0.298
NCI-H647,0.517,0.405,0.218,0.359,0.487,0.567,0.604,0.777,0.639,0.766,1.06,1.11,1.1,0.669,0.475,1.16,1.2,1.05,0.762,0.671
NCI-H650,0.407,0.293,0.286,0.324,0.33,0.396,0.438,0.632,0.481,0.548,0.779,0.844,1.05,0.667,0.669,0.965,1.15,1.11,0.92,0.67
NCI-H661,0.592,0.521,0.428,0.46,0.442,0.824,0.77,0.829,0.727,0.66,0.474,0.503,0.572,0.428,0.438,0.759,0.429,0.676,0.197,0.428
NCI-H727,0.851,0.891,0.446,0.898,0.818,1.31,1.15,0.658,1.2,1.16,0.768,0.919,0.758,0.797,0.416,0.597,0.522,0.593,0.487,0.418
